Several values for one entry are separate records, joined by “and”; a condition that tells them apart may be missing. Equal entries are not always repeated.
Assays:
Format in all cases: in vivo, human
[1] = system: Chinese patients with T2D; assay: Glycated haemoglobin A1c (HbA1c); details: for Change from baseline to week 12 in HbA1c, single patients / HbA1c at week 12, single patients: each line a single patient; for Change from baseline in HbA1c, LS mean / Change from baseline in HbA1c, LS mean (SE) / HbA1c: ETD versus placebo, LS mean (90% CI): MMRM
Method: HbA1c (2200101, Bio-Rad, USA), blood glucose (05168791190, Roche Diagnostics, Germany), insulin (12017547122, Roche Diagnostics, Germany), C peptide (03184897190, Roche Diagnostics, Germany), total GLP-1 (GLP-1 [7–36] amide and its metabolite, GLP-1 [9–36] amide, 10-1278-01, Mercodia AB, Sweden) and OXM (AL-139, AnshLabs, USA) tests were performed according to the manufactures’ instruction manuals in a central laboratory (KingMed Diagnostics, Guangzhou, China). HbA1c was measured using a Bio-rad D-100 Haemoglobin Testing System (Bio-rad). Blood glucose was measured using a Roche Cobas c702 analyser (Roche Diagnostics). Insulin and C peptide were measured using a Roche […] analyser (Roche Diagnostics). GLP-1 and OXM were measured using a Tecan Infinite M Plex microplate reader (TECAN).
Standard non-compartmental pharmacokinetics methods were used to analyze IBI362 plasma concentration data using Pkanalix 2020R1 (Lixoft, Antony, France). Secondary efficacy outcomes included change from baseline to week 12 in HbA1c, fasting plasma glucose (FPG), fasting insulin levels, change from baseline to week 12 in post-mixed-meal tolerance test (post-MTT) glucose, insulin, C peptide, GLP-1 and OXM levels, as well as seven-point self-measured blood glucose (SMBG) profile.
The analyses for change from baseline in HbA1c, FPG, post-MTT glucose AUC0–4 h and body weight were performed using the mixed-effect model for repeated measures (MMRM) with least-squares means and standard error provided. The MMRM included the corresponding baseline value, treatment, visit and treatment-by-visit as fixed effects and patient as a random effect. Mean change or mean percent change from baseline were analysed using a restricted maximum likelihood (REML)‐based repeated measures approach in combination with the Newton Raphson Algorithm. The fix effect of visit was fitted as a repeated effect and an unstructured covariance matrix was used. In case of non-converge, matrix like Variance Components and Compound Symmetry will be tested in a subsequent order until model‐convergence is achieved. The Kenward-Roger degree of freedom was used in estimating fixed effects. No missing data imputation was conducted. For HbA1c, FPG and body weight, point estimate of treatment difference versus placebo and 90% CI were provided for each IBI362 dose group and the dulaglutide group, with nominal p values.

[2] = system: Chinese patients with T2D; assay: Blood pressure (systolic, diastolic); details: mean
Excerpt: (§1) Primary outcomes of the study were the safety and tolerability of IBI362. Safety assessment included adverse events, physical examinations, laboratory tests (including lipase, amylase and calcitonin level measures), vital signs and 12-lead electrocardiogram. Adverse events were categorized according to the Medical Dictionary for Regulatory Activities system organ classes (SOCs) and preferred terms. Treatment-emergent adverse events (TEAEs) were monitored from the time of informed consent to the safety follow-up period. The severity of TEAEs (mild, moderate or severe) and the association between an event and the study drug were assessed by investigators based on pre-specified criteria.
Fig. S7: Change from baseline in waist circumference, BMI and blood pressure at week 12. a. CFB in waist circumference at week 12. b. CFB in BMI at week 12. c. CFB in blood pressure at week 12. Data are plotted as means +/- SD. a. IBI362 3.0 mg n = 7; IBI362 4.5 mg n = 5; IBI362 6.0 mg n = 8; Pooled placebo n = 11; Dulaglutide n = 6. b. IBI362 3.0 mg n = 7; IBI362 4.5 mg n = 5; […]
mg n = 6; IBI362 6.0 mg n = 8; Pooled placebo n = 11; Dulaglutide n = 6. BMI = body-mass index; CFB = change from baseline; DBP = diastolic blood pressure; SBP = systolic blood pressure; SD = standard deviation. Source data are provided as a Source Data file.
CFB in BMI at week 12 (kg/m2), […]
at week 12 (mm Hg), mean (SD)
CFB in waist circumference at week 12 (cm), mean (SD) […]

[3] = system: Chinese patients with T2D; assay: Homeostatic model assessment of β-cell function (HOMA-β); details: for Change from baseline to week 12 in HOMA-β, individual: single patients
Excerpt: Exploratory outcomes included change from baseline in body weight, waist circumference, body-mass index (BMI) and change in homeostatic model assessment of β-cell function (HOMA-β) and insulin resistance (HOMA-IR).

[4] = system: Chinese patients with T2D; assay: Change from baseline in heart rate, standard 12-lead electrocardiogram
Excerpt: as §1
CFB in heart rate (beats/min),
Fig. S1: Change from baseline in heart rate over time.
Data are from standard 12-lead electrocardiogram, measured at 1 hour before each dose in the morning from week 0 to week 11, and 168 hours after the last dose (week 12). Data are plotted as means +/- SD. CFB = change from baseline; SD = standard deviation.Source data are provided as […]
(1 picture or pasted object on this page, not shown here)

[5] = week 12, 1.5 mg once weekly, n=6

## CC(C)C[C@H](NC(=O)[C@H](CC(C)C)NC(=O)[C@H](Cc1c[nH]c2ccccc12)NC(=O)[C@H](CCC(=O)O)NC(=O)[C@@H](NC(=O)[C@H](Cc1ccccc1)NC(=O)[C@H](CCC(=O)O)NC(=O)[C@H](CCCCNC(=O)COCCOCCNC(=O)COCCOCCNC(=O)CC[C@H](NC(=O)CCCCCCCCCCCCCCCCCCC(=O)O)C(=O)O)NC(=O)[C@H](C)NC(=O)[C@H](CCCCN)NC(=O)[C@H](CCCCN)NC(=O)[C@H](CCC(=O)O)NC(=O)[C@H](CC(=O)O)NC(=O)[C@H](CC(C)C)NC(=O)[C@H](Cc1ccc(O)cc1)NC(=O)[C@H](CCCCN)NC(=O)[C@H](CO)NC(=O)[C@H](Cc1ccc(O)cc1)NC(=O)[C@H](CC(=O)O)NC(=O)[C@H](CO)NC(=O)[C@@H](NC(=O)[C@H](Cc1ccccc1)NC(=O)[C@@H](NC(=O)CNC(=O)[C@H](CCC(N)=O)NC(=O)C(C)(C)NC(=O)[C@@H](N)Cc1c[nH]cn1)[C@@H](C)O)[C@@H](C)O)C(C)C)C(=O)N[C@@H](CCC(=O)O)C(=O)NCC(=O)NCC(=O)N1CCC[C@H]1C(=O)N[C@@H](CO)C(=O)N[C@@H](CO)C(=O)NCC(N)=O [IBI362]
[1]; 3.0 mg cohort, n=8
  Percent of patients with change from baseline to week 12 in HbA1c <1.0%: 0.0%
  Percent of patients with change from baseline to week 12 in HbA1c ≥1.0% and <1.5%: 37.5%
  Percent of patients with change from baseline to week 12 in HbA1c ≥1.5% and <2.0%: 25.0%
  Percent of patients with change from baseline to week 12 in HbA1c ≥2.0%: 25.0%
[1]; 4.5 mg cohort, n=8
  Percent of patients with change from baseline to week 12 in HbA1c <1.0%: 0.0%
  Percent of patients with change from baseline to week 12 in HbA1c ≥1.0% and <1.5%: 12.5%
  Percent of patients with change from baseline to week 12 in HbA1c ≥1.5% and <2.0%: 25.0%
  Percent of patients with change from baseline to week 12 in HbA1c ≥2.0%: 37.5%
[1]; 6.0 mg cohort, n=8
  Percent of patients with change from baseline to week 12 in HbA1c <1.0%: 25.0%
  Percent of patients with change from baseline to week 12 in HbA1c ≥1.0% and <1.5%: 0.0%
  Percent of patients with change from baseline to week 12 in HbA1c ≥1.5% and <2.0%: 37.5%
  Percent of patients with change from baseline to week 12 in HbA1c ≥2.0%: 37.5%
[1]; all IBI362 cohorts, n=24
  Percent of patients with change from baseline to week 12 in HbA1c <1.0%: 8.3%
  Percent of patients with change from baseline to week 12 in HbA1c ≥1.0% and <1.5%: 16.7%
  Percent of patients with change from baseline to week 12 in HbA1c ≥1.5% and <2.0%: 29.2%
  Percent of patients with change from baseline to week 12 in HbA1c ≥2.0%: 33.3%
[1]; 3.0 mg cohort
  Change from baseline to week 12 in HbA1c, single patients: -2.8% and -1.4% and -1.0% and -1.9% and -1.8% and -2.7% and -1.3%
  HbA1c at week 12, single patients: 6.4% and 6.1% and 8.6% and 7.3% and 6.8% and 6.7% and 7.4%
[1]; 4.5 mg cohort
  Change from baseline to week 12 in HbA1c, single patients: -1.2% and -1.7% and -2.3% and -3.3% and -3.7%
  HbA1c at week 12, single patients: 6.1% and 6.3% and 5.7% and 6.9% and 6.8% and 6.0%
[1]; 6.0 mg cohort
  HbA1c at week 12, single patients: 7.0% and 6.8% and 5.9% and 6.1% and 7.1% and 5.8% and 7.8%
[1]; week 4, 3.0 mg cohort, n=8
  Change from baseline in HbA1c, LS mean: -0.38%
[1]; week 4, 4.5 mg cohort, n=8
  Change from baseline in HbA1c, LS mean: -0.80%
[1]; week 4, 6.0 mg cohort, n=8
  Change from baseline in HbA1c, LS mean: -0.61%
[1]; week 8, 3.0 mg cohort, n=8
  Change from baseline in HbA1c, LS mean: -0.98%
[1]; week 8, 4.5 mg cohort, n=8
  Change from baseline in HbA1c, LS mean: -1.58%
[1]; week 8, 6.0 mg cohort, n=8
  Change from baseline in HbA1c, LS mean: -1.32%
[1]; week 12, 3.0 mg cohort, n=8
  Change from baseline in HbA1c, LS mean (SE): -1.46%
[1]; week 12, 3.0 mg cohort
  HbA1c: ETD versus placebo, LS mean (90% CI): −0.59%
[1]; week 12, 4.5 mg cohort, n=8
  Change from baseline in HbA1c, LS mean (SE): -2.23%
[1]; week 12, 4.5 mg cohort
  HbA1c: ETD versus placebo, LS mean (90% CI): −1.35%
[1]; week 12, 6.0 mg cohort, n=8
  Change from baseline in HbA1c, LS mean (SE): -1.66%
[1]; week 12, 6.0 mg cohort
  HbA1c: ETD versus placebo, LS mean (90% CI): −0.79%
[1]; week 12, all IBI362 cohorts
  patients achieving HbA1c level of 6.5% or lower: nine
[1]; week 12, all IBI362 cohorts, n=24
  patients achieving ≥1.5% reductions in HbA1c from baseline: 62.5%
[2]; IBI362 3.0 mg
  Change from baseline to week 12 in blood pressure, diastolic: -1.4 mm Hg
  Change from baseline to week 12 in blood pressure, systolic: -8.1 mm Hg
[2]; IBI362 4.5 mg
  Change from baseline to week 12 in blood pressure, diastolic: -5.2 mm Hg
  Change from baseline to week 12 in blood pressure, systolic: -6.7 mm Hg
[2]; IBI362 6.0 mg
  Change from baseline to week 12 in blood pressure, diastolic: 2.3 mm Hg
  Change from baseline to week 12 in blood pressure, systolic: -3.3 mm Hg
[3]; 3.0 mg cohort, n=7
  Change from baseline to week 12 in HOMA-β, mean: 9.2%
  Change from baseline to week 12 in HOMA-β, individual: -8.1% and 15.7% and 23.0% and -3.8% and 14.4% and 16.4% and 6.9%
[3]; 4.5 mg cohort, n=5
  Change from baseline to week 12 in HOMA-β, mean: 26.4%
  Change from baseline to week 12 in HOMA-β, individual: -9.6% and 82.4% and -0.3% and 47.8% and 11.6%
[3]; 6.0 mg cohort, n=8
  Change from baseline to week 12 in HOMA-β, mean: 21.0%
  Change from baseline to week 12 in HOMA-β, individual: -6.2% and 6.9% and 72.2% and 5.4% and 33.9% and 27.9% and -1.8% and 29.8%
[4]; 3.0 mg cohort
  heart rate, mean change from baseline (bound): < 10 beats per minute
[4]; 6.0 mg cohort
  heart rate, mean change from baseline (bound): < 15 beats per minute
[4]; patients receiving IBI362
  heart rate increase (up to): 10-15 beats per minute

## Dulaglutide: open-label active reference, subcutaneously once weekly at a fixed dose of 1.5 mg [reference compound]
[1]; 1.5 mg once weekly, n=6
  Percent of patients with change from baseline to week 12 in HbA1c <1.0%: 16.7%
  Percent of patients with change from baseline to week 12 in HbA1c ≥1.0% and <1.5%: 50.0%
  Percent of patients with change from baseline to week 12 in HbA1c ≥1.5% and <2.0%: 0.0%
  Percent of patients with change from baseline to week 12 in HbA1c ≥2.0%: 33.3%
[1]; 1.5 mg once weekly
  HbA1c at week 12, single patients: 6.4% and 6.6% and 6.5% and 7.2% and 6.0%
[1]; 1.5 mg once weekly, listed as dulaglutide
  HbA1c at week 12, single patients: 5.5%
[1]; week 4, 1.5 mg once weekly, n=6
  Change from baseline in HbA1c, LS mean: -1.03%
[1]; week 8, 1.5 mg once weekly, n=6
  Change from baseline in HbA1c, LS mean: -1.72%
[1]; [5]
  patients achieving ≥1.5% reductions in HbA1c from baseline: 33.3%
  Change from baseline in HbA1c, LS mean (SE): -1.98%
[1]; week 12, 1.5 mg once weekly
  HbA1c: ETD versus placebo, LS mean (90% CI): −1.11%
[2]; Dulaglutide group
  Change from baseline to week 12 in blood pressure, diastolic: 4.0 mm Hg
  Change from baseline to week 12 in blood pressure, systolic: 5.8 mm Hg
[3]; 1.5 mg once weekly, n=6
  Change from baseline to week 12 in HOMA-β, mean: 30.9%
  Change from baseline to week 12 in HOMA-β, individual: 31.2% and 37.1% and 18.9% and 5.2% and 22.2% and 70.7%
[4]; 1.5 mg once weekly
  heart rate, mean change from baseline (bound): < 10 beats per minute
